Measured values: patent US8304393B2, “Epithelial cell growth promoter” (Patent Technology Development Inc., priority 2004, dated 2012)

What was measured:
[1] = system: human hair papilla cells; test: Hair papilla cell growth test (Example 7, AlamarBlue); type: cell-based; settings: 0.3-100 μM, 3 days culture
Text: (§1) To confirm the cell selectivity of the oligopeptide obtained in Example 3 as an epithelial cell growth promoter, the presence or absence of the cell growth-promoting effect on cells existing in skin tissues, that is, HBKs, epidermal cells, dermal fibroblasts, and hair papilla cells, was examined in the following manner. Incidentally, the same culture medium and test medium as in Example 5 were used.
Moreover, human hair papilla cells (product code “602-05”, a product by TOYOBO CO.) were dispersed in a culture medium, then inoculated into a collagen-coated 96-well microplate, and cultured at 37° C. in an atmosphere containing 5% CO2.
A 1 mg portion of the pentapeptide obtained in Example 3 was added to 232.8 μl of a test medium and dissolved by stirring to prepare a 10 mM solution. Subsequently, this 10 mM solution was stepwise diluted to prepare 6 types of sample solutions each in a concentration of 100 μM (No. 1), 30 μM (No. 2), 10 μM (No. 3), 3 μM (No. 4), 1 (No. 5), and 0.3 μM (No. 6). […]
(§2) After 24 hours from the inoculation of the cells, the culture solutions were removed, and the cultured cells were washed with a DMEM solution. […] After 2 hours, fluorescence intensity (excitation wavelength: 544 nm, measurement wavelength: 590 nm) was measured with a microplate reader (Model “Fluoroskan Ascent FL”, manufactured by Labsystems) to evaluate the number of cells.

[2] = system: epidermal cells; test: Epidermal cell growth test (Example 7, AlamarBlue); type: cell-based, C3H/HeN mouse; settings: for effect on the epidermal cells as compared with that of the control: 4 days culture
Text: as §1
(§3) The skin of a 5 day-old C3H/HeN mouse was aseptically collected and cut with a surgical knife into samples of strips of approximately 2-mm-wide skin slices. The above-mentioned samples were immersed in a solution prepared by dissolving 500 U/ml of dispase (lot No. 0101, a product by GODO SHUSEI CO.) in DMEM (product code “D-5523”, a product by Sigma) containing 5% by mass of FBS (lot No. 0101, a product by Cansera International Inc.), and then kept standing at 4° C. for 16 hours. Subsequently, epidermis tissues were ablated with tweezers from the skin slices and separated from dermis tissues. The thus obtained epidermis tissues were subjected to the separation of epidermal cells, and the dermis tissues were subjected to the separation of HBKs and dermal fibroblasts.
The above-mentioned epidermis tissues were immersed in a solution prepared by dissolving 0.25% by mass of trypsin in 2.65 mM aqueous EDTA solution, and then treated at 37° C. for 5 minutes to prepare a dispersion solution of epidermal cells.
(§4) Subsequently, this dispersion solution was centrifuged at 1000 rpm for 5 minutes, and the supernatant was removed. The thus obtained epidermal cells were dispersed in a culture medium, then inoculated into a collagen-coated 96-well microplate, and cultured at 37° C. in an atmosphere containing 5% CO2.
(§5) A 1 mg portion of the pentapeptide obtained in Example 3 was added to 232.8 μl of a test medium and dissolved by stirring to prepare a 10 mM solution. Subsequently, this 10 mM solution was stepwise diluted to prepare 6 types of sample solutions each in a concentration of 100 μM (No. 1), 30 μM (No. 2), 10 μM (No. 3), 3 μM (No. 4), 1 (No. 5), and 0.3 μM (No. 6). Only a test medium was used as a control.
(§6) After 24 hours from the inoculation of the cells, the culture solutions were removed, and the cultured cells were washed with an MCDB153 solution. Each of the above mentioned sample solutions was added to the cultured cell at 100 μl/well and cultured at 37° C. in an atmosphere containing 5% CO2. After 4 days, AlamarBlue reagent (registered trademark, cat. No. DAL1100, lot No. AB083002, a product by Biosource International Inc.) was added at 10 μl/well, and the culture was continued at 37° C. in an atmosphere containing 5% CO2. After 2 hours, fluorescence intensity (excitation wavelength: 544 nm, measurement wavelength: 590 nm) was measured with a microplate reader (Model “Fluoroskan Ascent FL”, manufactured by Labsystems) to evaluate the number of cells. A significant difference test was performed by Dunnett's multiple comparison test (software “Super ANOVA V.1.11”, a product by Abacus Concepts).

[3] = system: C3H/He female mice; test: Hair regrowth on shaved dorsal skin of telogen-phase mice (Example 6); type: in vivo; settings: 1 mg/ml, 100 μl/mouse once a day topical, 14th day after application
Method: A 1 mg portion of the pentapeptide obtained in Example 3 was dissolved in 300 μl of water for injection (product code “057-00456”, a product by Otsuka Pharmaceutical Co.), to which 200 μl of propylene glycol (product code “161-05006”, a product by Wako Pure Chemical Industries) and 500 μl of ethyl alcohol (product code “057-00456”, a product by Wako Pure Chemical Industries) were then added and they were mixed together to prepare an epithelial cell growth promoter in a concentration of 1 mg/ml.
Ten 7-week-old C3H/He female mice were raised for acclimatization for 1 week, and the hair on the dorsal of each mouse in the telogen phase of a hair cycle was shaved with an electric clipper and an electric shaver to prepare experimental animals.
Next, these experimental animals were divided into two groups each containing five mice. The epithelial cell growth promoter was applied at 100 μl/mouse once a day to the shaved area of the first group from the 3rd day after shaving on, while only a mixture of water for injection, propylene glycol, and ethyl alcohol (3:2:5 by volume) was applied as a control to the second group.
Next, these images were computer-processed to calculate with image analysis software the ratio of the hair-regrowth area (the number of pixels of hair-regrowth area/the number of pixels of shaved area) as percentages. […]

[4] = system: HBKs; test: HBK growth test (Example 7, AlamarBlue); type: cell-based, C3H/HeN mouse; settings: for effect on the HBK growth as compared with that of the control: 4 days culture
Text: as §1, §3
The thus obtained dermis tissues were immersed in PBS (−) (product code “P-4417”, a product by Sigma) and cut into strips with opthalmological scissors. The strips were immersed into a solution prepared by dissolving 0.2% by mass of collagenase (lot No. 001014W, a product by Nitta Gelatin Inc.) in DMEM containing 5% by mass of FBS, and then digested at 37° C. for 1 hour. The thus obtained dermis digestion solution was centrifuged at 1000 rpm for 5 minutes. The supernatant was removed, and the residue was supplemented with PBS (−) and gently pipetted to prepare a dermis suspension.
For separating dermal fibroblasts and hair bulbs, this dermis suspension was kept standing for 15 minutes to precipitate only the hair bulbs. The “standing to precipitation” procedure was repeated three times. The thus obtained hair bulbs were immersed in a solution preparing by dissolving 0.25% by mass of trypsin in 2.65 mM aqueous EDTA solution, and then treated at 37° C. for 5 minutes to prepare a dispersion solution of HBKs.
as §4, with “Next,” for “Subsequently,”, “minutes. After this centrifugation,” for “minutes, and”, “HBKs” for “epidermal cells”
as §5, §6

[5] = system: dermal fibroblasts; test: Dermal fibroblast growth test (Example 7, AlamarBlue); type: cell-based, C3H/HeN mouse; settings: 0.3-100 μM, 3 days culture
Text: as §1
The skin of a 5 day-old C3H/HeN mouse was aseptically collected and cut with a surgical knife into samples of strips of approximately 2-mm-wide skin slices. The above-mentioned samples were immersed in a solution prepared by dissolving 500 U/ml of dispase (lot No. 0101, a product by GODO SHUSEI CO.) in DMEM (product code “D-5523”, a product by Sigma) containing 5% by mass of FBS (lot No. 0101, a product by Cansera International Inc.), and then kept standing at 4° C. for 16 hours. Subsequently, epidermis tissues were ablated with tweezers from the skin slices and separated from dermis tissues. […]
as §2

Structure (SMILES): CC[C@H](C)[C@H](NC(=O)[C@@H]1CCCN1C(=O)CN)C(=O)NCC(=O)N[C@@H](CO)C(=O)O (racemic) [Example 3, glycyl-prolyl-isoleucyl-glycyl-serine]
- influence on hair papilla cell growth [1]: no influence
- effect on the epidermal cells as compared with that of the control ([2]; 0.3 μM (No. 6)): 102%
- effect on the epidermal cells as compared with that of the control ([2]; 1 μM (No. 5)): 110%
- effect on the epidermal cells as compared with that of the control ([2]; 3 μM (No. 4)): 118%
- effect on the epidermal cells as compared with that of the control ([2]; 10 μM (No. 3)): 124%
- effect on the epidermal cells as compared with that of the control ([2]; 30 μM (No. 2)): 127%
- effect on the epidermal cells as compared with that of the control ([2]; 100 μM (No. 1)): 127%
- concentration at which significant difference from control could be noted ([2]; epidermal cells, 1 μM: p<0.05, 3 μM or higher: p<0.01): ≥ 1 µM
- hair growth promotion observed in pictures of the shaved areas ([3]; compared with control group): evident hair growth promotion
- ratio of the hair-regrowth area ([3]; n=5, control 36.9±5.7%, p<0.01): 66.6±3.5%
- effect on the HBK growth as compared with that of the control ([4]; 0.3 μM (No. 6)): 101%
- effect on the HBK growth as compared with that of the control ([4]; 1 μM (No. 5)): 111%
- effect on the HBK growth as compared with that of the control ([4]; 3 μM (No. 4)): 124%
- effect on the HBK growth as compared with that of the control ([4]; 10 μM (No. 3)): 141%
- effect on the HBK growth as compared with that of the control ([4]; 30 μM (No. 2)): 142%
- effect on the HBK growth as compared with that of the control ([4]; 100 μM (No. 1)): 141%
- concentration at which significant difference from control could be noted ([4]; HBKs, p<0.01, Dunnett's test): ≥ 1 µM
- influence on dermal fibroblast growth [5]: no influence
